From patent publication US6781000B1, “Alpha-ketoamide inhibitors of 20S proteasome” (CV Theurapeutics, Inc., priority 1998, dated 2004)

biological target: T1, chymotrypsin-like activity of 20S proteasome (Bos taurus, UniProt Q2TBX6+Q32KL2); assay: 20S proteasome chymotryptic activity inhibition assay (Suc-Leu-Leu-Val-Tyr-AMC cleavage); type: biochemical; settings: 2 μg 20S proteasome from bovine brain, 50 μM fluorogenic substrate, 15 minutes at 37° C., pH7.5
T1 construct: was purified to homogeneity from bovine brain according to published methods; from tissue; host or cells: bovine brain
Experimental: Compounds of this invention prepared according to the method of Example 1 were tested as follows. The 20S catalytic subunit of the proteasome (also known as the multicatalytic proteinase complex) was purified to homogeneity from bovine brain according to published methods (Wilk S. and Orlowski,M 1983, 40 842 J.Neurochem). The chymotryptic activity of the complex is measured by the increase in fluorescence following cleavage of the substrate peptide succinyl-leucine-leucine-valine-tyrosine-7-amino-4methyl coumarin. The standard in vitro assay consists of 2 μg 20S proteasome, 0.1-100 μg/ml proteasome inhibitor in 200 μl 50 mM HEPES, containing 0.1% sodium dodecyl sulphate, pH7.5. The proteolytic reaction is initiated by the addition of 50 μM flourogenic peptide substrate and allowed to progress for 15 minutes at 37° C. The reaction is terminated by the addition of 100 μL of 100 mM acetate buffer, pH4.0. The rate of proteolysis is directly proportional to the amount of liberated aminomethylcoumarin which is measured by fluorescent spectroscopy (EX 370 nm, EM 430 nm).

IC50 [µM]	IC50 for the inhibition of the chymotrypsin-like activity of 20S proteasome [µg/mL]	SMILES
> 18.4		CC(C)C[C@H](NC(=O)[C@@H](CC(C)C)NC(=O)[C@H](CC(C)C)NC(=O)C(=O)Cc1c[nH]c2ccccc12)C(=O)O [Compound 18]
	>10	CC(C)CC(NC(=O)C(Cc1cccnc1)NC(=O)C(=O)Cc1c[nH]c2ccccc12)C(=O)NC(C(=O)O)C(C)C (stereo not drawn) [Compound 49]
	>10	CC(C)CC(NC(=O)C(NC(=O)C(=O)Cc1c[nH]c2ccccc12)C(C)C)C(=O)NC(CCC(=O)O)C(=O)O (stereo not drawn) [Compound 156]
	>10	CC(C)CC(NC(=O)C(C)NC(=O)C(=O)Cc1c[nH]c2ccccc12)C(=O)NC(CC(=O)O)C(=O)O (stereo not drawn) [Compound 139]
	>10	CC(C)CC(NC(=O)C(=O)c1ccccc1)C(=O)NC(CC(C)C)C(=O)NCC(=O)O (stereo not drawn) [Compound 12]
	5	CC(C)CC(NC(=O)C(Cc1ccc(-c2ccccc2)cc1)NC(=O)C(=O)Cc1c[nH]c2ccccc12)C(=O)NCCC(=O)O (stereo not drawn) [Compound 188]
	>10	CC(C)CC(NC(=O)C(=O)Cc1c[nH]c2ccccc12)C(=O)NC(CC(C)C)C(=O)NC(Cc1ccc(O)cc1)C(=O)O (stereo not drawn) [Compound 21]
	>10	CC(C)CC(NC(=O)C(Cc1ccc(-c2ccccc2)cc1)NC(=O)C(=O)Cc1c[nH]c2ccccc12)C(=O)NC(Cc1ccc(-c2ccccc2)cc1)C(=O)O (stereo not drawn) [Compound 189]
	>10	CC(C)CC(NC(=O)CNC(=O)C(=O)Cc1c[nH]c2ccccc12)C(=O)NCC(=O)O (stereo not drawn) [Compound 184]
	>10	CC(C)CC(NC(=O)C(Cc1ccc(-c2ccccc2)cc1)NC(=O)C(=O)Cc1c[nH]c2ccccc12)C(=O)NCC(=O)O (stereo not drawn) [Compound 66]
	>10	CC(C)CC(NC(=O)C(Cc1cccnc1)NC(=O)C(=O)Cc1c[nH]c2ccccc12)C(=O)NCC(=O)O (stereo not drawn) [Compound 64]
	>10	CCCCC(NC(=O)C(=O)Cc1c[nH]c2ccccc12)C(=O)NC(CC(C)C)C(=O)NC(C(=O)O)C(C)C (stereo not drawn) [Compound 39]
	>10	CC(C)CC(NC(=O)C(=O)c1c[nH]c2ccccc12)C(=O)NC(CC(C)C)C(=O)NC(Cc1ccccc1)C(=O)O (stereo not drawn) [Compound 14]
	>10	CCCCC(NC(=O)C(CC(C)C)NC(=O)C(NC(=O)C(=O)Cc1c[nH]c2ccccc12)C(C)C)C(=O)O (stereo not drawn) [Compound 126]
	>10	CCC(C)C(NC(=O)C(CC(C)C)NC(=O)C(CC(C)C)NC(=O)C(=O)Cc1c[nH]c2ccccc12)C(=O)O (stereo not drawn) [Compound 24]
> 20.5		CC(C)C[C@@H](NC(=O)[C@H](CC(=O)O)NC(=O)C(=O)Cc1c[nH]c2ccccc12)C(=O)NCC(=O)O [Compound 58]
> 19.4		CCCC[C@H](NC(=O)C(=O)Cc1c[nH]c2ccccc12)C(=O)N[C@H](CC(C)C)C(=O)N[C@@H](CO)C(=O)O [Compound 91]
	>10	CC(C)CC(NC(=O)C(Cc1ccc2ccccc2c1)NC(=O)C(=O)Cc1c[nH]c2ccccc12)C(=O)NC(C(=O)O)C(C)C (stereo not drawn) [Compound 50]
	>10	CC(C)CC(NC(=O)C(=O)Cc1c[nH]c2ccccc12)C(=O)NC(CC(C)C)C(=O)NC(C(=O)O)C(C)C (stereo not drawn) [Compound 32]

IC50 [µM]	IC50 for the inhibition of the chymotrypsin-like activity of 20S proteasome [µg/mL]	SMILES
	>10	CC(C)CC(NC(=O)C(C)NC(=O)C(=O)Cc1c[nH]c2ccccc12)C(=O)NC(C(=O)O)C(C)C (stereo not drawn) [Compound 42]
	5	CC(C)CC(NC(=O)C(Cc1ccc2ccccc2c1)NC(=O)C(=O)Cc1c[nH]c2ccccc12)C(=O)NC(CC(=O)O)C(=O)O (stereo not drawn) [Compound 180]
	>10	CC(C)CC(NC(=O)C(CC1CCCCC1)NC(=O)C(=O)Cc1c[nH]c2ccccc12)C(=O)NC(CO)C(=O)O (stereo not drawn) [Compound 100]
	>10	CC(C)CC(NC(=O)C(=O)Cc1c[nH]c2ccccc12)C(=O)NC(CC(C)C)C(=O)NCC(=O)NCc1ccccc1 (stereo not drawn) [Compound 9]
	>10	CCCCC(NC(=O)C(=O)Cc1c[nH]c2ccccc12)C(=O)NC(CC(C)C)C(=O)NCC(=O)O (stereo not drawn) [Compound 54]
> 18.4		CC(C)C[C@H](NC(=O)[C@@H](CC(C)C)NC(=O)[C@@H](CC(C)C)NC(=O)C(=O)Cc1c[nH]c2ccccc12)C(=O)O [Compound 23]
	>10	CCC(NC(=O)C(=O)Cc1c[nH]c2ccccc12)C(=O)NC(CC(C)C)C(=O)NC(CC(=O)O)C(=O)O (stereo not drawn) [Compound 140]
	>10	CCCC(NC(=O)C(=O)Cc1c[nH]c2ccccc12)C(=O)NC(CC(C)C)C(=O)NC(C(=O)O)C(C)C (stereo not drawn) [Compound 199]
	>10	CC(C)CC(NC(=O)C(Cc1ccccc1)NC(=O)C(=O)Cc1c[nH]c2ccccc12)C(=O)NCC(=O)O (stereo not drawn) [Compound 55]
	>10	CC(C)CC(NC(=O)C(Cc1cccnc1)NC(=O)C(=O)Cc1c[nH]c2ccccc12)C(=O)NC(CO)C(=O)O (stereo not drawn) [Compound 101]
> 20.6		CCCC(NC(=O)C(=O)Cc1c[nH]c2ccccc12)C(=O)NC(CC(C)C)C(=O)NC(C)C(=O)O (stereo not drawn) [Compound 75]
	>10	CC(C)CC(NC(=O)C(=O)Cc1ccccc1)C(=O)NC(CC(C)C)C(=O)NCC(=O)NCc1ccccc1 (stereo not drawn) [Compound 7]
	>10	CCCCC(NC(=O)C(CC(C)C)NC(=O)C(C)NC(=O)C(=O)Cc1c[nH]c2ccccc12)C(=O)O (stereo not drawn) [Compound 124]
	>10	CC(C)CC(NC(=O)C(NC(=O)C(=O)Cc1c[nH]c2ccccc12)C(C)C)C(=O)NC(CC(=O)O)C(=O)O (stereo not drawn) [Compound 141]
	>10	CC(C)CC(NC(=O)C(Cc1ccc2ccccc2c1)NC(=O)C(=O)Cc1c[nH]c2ccccc12)C(=O)NC(CCCNC(=N)N)C(=O)O (stereo not drawn) [Compound 205]
	>10	CCC(C)C(NC(=O)C(=O)Cc1c[nH]c2ccccc12)C(=O)NC(CC(C)C)C(=O)NC(CCC(=O)O)C(=O)O (stereo not drawn) [Compound 159]
	>10	CC(C)CC(NC(=O)C(CC1CCCCC1)NC(=O)C(=O)Cc1c[nH]c2ccccc12)C(=O)NC(C)C(=O)O (stereo not drawn) [Compound 78]
	>10	CC(C)CC(NC(=O)C(Cc1ccc2ccccc2c1)NC(=O)C(=O)Cc1c[nH]c2ccccc12)C(=O)NC(C)C(=O)O (stereo not drawn) [Compound 80]
	>10	CC(C)CC(NC(=O)C(CC(C)C)NC(=O)C(=O)c1ccccc1)C(=O)O (stereo not drawn) [Compound 11]

SMILES	IC50 [µM]	IC50 for the inhibition of the chymotrypsin-like activity of 20S proteasome [µg/mL]
CC(C)CC(NC(=O)C(=O)Cc1c[nH]c2ccccc12)C(=O)NC(CC(C)C)C(=O)NC(C)C(=O)O (stereo not drawn) [Compound 30]	> 20	
